Reference: publication PMC7917659, “Selective Cytotoxicity of Complexes with N,N,N-Donor Dipodal Ligand in Tumor Cells” (International Journal of Molecular Sciences, 2021)
Entries after “also recorded” stand apart in the source; their conditions may differ. Where two headings read alike, the source gives them in different places.

Tests used:
Hep G2 cells [1] = assay: Antiproliferative MTT assay, tumour cells; format: cell-based; conditions: for IC50: MTT assay, 72 h exposure, M ± SD, n = 3, read-out: IC50 for Cancer HEP G2 Cells
Hep G2 cells [2] = system: Hep G2 cells; design: method as in doi:10.1039/C6RA06439F; conditions: read-out: IC50 for Cancer HEP G2 Cells, cited from earlier work
CHO-K1 cells [3] = assay: Antiproliferative MTT assay, noncancerous cells; format: cell-based; conditions: 72 h exposure, M ± SD, n = 3
[4] = system: matrix metalloproteinase-2 (MMP-2) mRNA; assay: Real-Time PCR (qPCR) gene expression in Hep G2 cells, MMP-2; format: cell-based, human
Procedure: (§1) Hep G2 cells were used to establish cell cultures (2 × 10^4 cells/well). After 24 h of incubation with chemicals at concentration of 50 µM/L or with 1% v/v DMSO (control), the cells were suspended in RL buffer (EURx, Gdansk, Poland) and the total RNA was extracted using Universal RNA purification Kit (EURx, Gdansk, Poland), according to the manufacturer’s protocol. For cDNA synthesis, MMLV reverse transcriptase (Promega, Madison, WI, USA) was used. The reverse transcription reaction was performed with ProFlex PCR System (Applied Biosystems, Foster City, CA, USA). The QuantStudio 7 Flex (Applied Biosystems, Foster City, CA, USA) was employed for the real-time PCR (qPCR). The following Taq-Man human probes (Applied Biosystems) were used for qPCR reaction: VEGFA (Hs00173626_m1), VIM (001855284_m1), MMP-2 (Hs00234422_m1), MMP-9 (Hs00234579_m1) and GAPDH (Hs99999905_m1). Blank qPCR Master Mix (EURx) was used according to the manufacturer’s instructions. Expression data were normalized on the mean housekeeping gene (GAPDH) as a reference. mRNA expressions were obtained with the 2^−ΔΔCt method and relative expression values were presented, as previously published.

[5] = system: matrix metalloproteinase-9 (MMP-9) mRNA; assay: Real-Time PCR (qPCR) gene expression in Hep G2 cells, MMP-9; format: cell-based, human
Procedure: as §1

CHO-K1 cells [6] = conditions: read-out: IC50 for Noncancerous CHO-K1 Cells, cited from earlier work
[7] = system: Glutathione Peroxidase (GPx); assay: Extracellular glutathione peroxidase activity in CHO-K1 culture medium; format: cell-based
Procedure: (§2) Glutathione peroxidase (GPx) activity was assayed spectrophotometrically in culture medium and enzyme function against reactive oxygen species was investigated according to Adachi et al., Comhair et al. and Howie et al. with modification of Zagrodzki, using hydrogen peroxide (H2O2) as a substrate. For experiment, cell cultures of CHO-K1 and Hep G2 cells were established with initial density of the cells as 2 × 10^4 cells/well. Then, the cells were exposed to 50 µM/L of each chemical for 24 h (control cells were incubated with 1% v/v of DMSO) and cell media were collected. Briefly, the samples were incubated with mixture of sodium azide, glutathione reductase, glutathione, reduced β-nicotinamide adenine dinucleotide phosphate (NADPH) and sodium phosphate (pH 7.6) for 2 min at 25 °C and the reaction was initiated by the addition of H2O2. NADPH was converted to NADP and the amount of the product was proportional to GPx activity. The decrease in absorbance at 340 nm over 3 min was recorded using a microplate reader Infinite M200 Pro, Tecan, Austria. The mean value was calculated and expressed as U/L of the cell culture medium.

CHO-K1 cells [8] = assay: Trypan blue exclusion test, noncancerous cells; format: cell-based; conditions: CHO-K1, 50 µM/L, 24 h exposure, p < 0.05 vs. control
Procedure: (§3) CHO-K1 and HepG2 cells were seeded into 6-well plates (Sarstedt, Numbrecht, Germany) at a density of 2 × 10^4 cells/well and then incubated for 24 h. The cell monolayers were washed with PBS solution (Sigma-Aldrich) and medium in each well was replaced with a new one, with addition of 50 µM/L of tested compound. Then, the cells were incubated in standard conditions for 24, 48 or 72 h. The cells cultured in the medium with addition of 1% v/v DMSO (Sigma-Aldrich) were positive controls (100% of growth). After incubation, the cells were detached using Trypsin-EDTA solution (Life Technologies) and suspended in buffered PBS (Sigma-Aldrich). Trypan Blue Exclusion dye (0.4% v/v, Sigma-Aldrich, Germany) was added to each cell culture and samples were kept at room temperature for 5 min. Then, the numbers of live cells (unstained) and dead cells (blue) in each population exposed to tested chemicals/dissolvent were measured with an automatic cell counter.

HepG2 cells [9] = assay: Cell growth assessment (cell counting), tumour cells; format: cell-based; conditions: HepG2, 50 µM/L, 72 h incubation
Procedure: (§4) For experiments, the cells were seeded at low density (3 × 10^3/mL) into the 6-well plates (Sarstedt, Numbrecht, Germany) and kept for 24 h. Then, the medium was replaced for new one, containing 50 µM/L of tested compound or 1% v/v of DMSO (control). The time points of incubations were set at 24, 48 or 72 h. At the end of each experiment, the cells were gently detached with Trypsin-EDTA solution (Life Technologies), suspended with appropriate growth medium with addition of 10% v/v FBS and centrifuged at 350× g for 5 min. Finally, the cells were suspended in buffered PBS (Sigma-Aldrich) and counted.

Hep G2 cells [10] = assay: Apoptosis and necrosis detection by flow cytometry, tumour cells; format: cell-based; conditions: Hep G2, 50 µM/L, 24 h, Annexin V/EthD-III flow cytometry
Procedure: (§5) For flow cytometry analyses, CHO-K1 and Hep G2 cells were plated in triplicates into 6-well plates (Sarstedt) at a density of 2 × 10^4 cells per well. The cells were treated for 24 h with tested complexes/comparator salts at concentration of 50 µM/L. Control cells were exposed to DMSO (1% v/v)for 24 h. Then, the cells were detached using Trypsin-EDTA solution, washed with buffered PBS (Lonza, Walkersville, MD, USA), centrifuged at 350× g for 5 min and suspended in binding buffer. Flow cytometry analysis was performed according to the manufacturer’s instructions (Biotium, Hayward, CA, USA). Fluorescent dyes, 488-AnnexinV (excitation maximum at 490 nm/emission maximum at 515 nm) and/or Ethidium homodimer (EthD-III; excitation maximum at 528 nm/emission maximum at 617 nm) were added to cell suspensions. To correct discrimination between cells and debris, SYTO 41 Blue Fluorescent Nucleic Acid Stain was used (excitation maximum at […]). The cells were incubated in dark for 15 min with appropriate dye/dyes and analysed using flow cytometer FACSCanto10C with BD FACSDiva 8.1 System Software (BD Biosciences Immunocytometry Systems, San Jose, CA, USA). The cells were gated according to forward (FSC), side scatter (SSC) and fluorescence parameters (FITC channel was used for 488-AnnexinV and Texas Red channel was used for EthD-III). The results are given as the percentage of apoptotic or necrotic cells of total counted cells.

[11] = system: vascular endothelial growth factor a (VEGFa) mRNA; assay: Real-Time PCR (qPCR) gene expression in Hep G2 cells, VEGFa; format: cell-based, human; conditions: Hep G2, 50 μM/L, 24 h, normalized to GAPDH
Procedure: as §1

CHO-K1 cells [12] = assay: Apoptosis and necrosis detection by flow cytometry, noncancerous cells; format: cell-based; conditions: CHO-K1, 50 µM/L, 24 h, Annexin V/EthD-III flow cytometry
Procedure: as §5

HepG2 cells [13] = assay: Trypan blue exclusion test, tumour cells; format: cell-based; conditions: HepG2, 50 µM/L, p < 0.01 vs. control; for Viable cells vs. control (trypan blue exclusion): 24 h exposure; for Cytotoxicity / cell viability vs. control (trypan blue exclusion): 72 h exposure
Procedure: as §3

vimentin (Vim) mRNA = assay: Real-Time PCR (qPCR) gene expression in Hep G2 cells, vimentin; format: cell-based, human; conditions: Hep G2, 50 μM/L, 24 h, normalized to GAPDH
Procedure: as §1

CHO-K1 cells [14] = assay: Cell growth assessment (cell counting), noncancerous cells; format: cell-based; conditions: CHO-K1, 50 µM/L, 72 h incubation
Procedure: as §4

[15] = system: Glutathione Peroxidase (GPx); assay: Extracellular glutathione peroxidase activity in Hep G2 culture medium; format: cell-based; conditions: HepG2 culture medium, 50 μM/L, 24 h
Procedure: as §2

[16] = MTT assay, 72 h exposure, M ± SD
[17] = CHO-K1 culture medium, 50 μM/L, 24 h
[18] = Hep G2, 50 μM/L, 24 h, normalized to GAPDH

Compound	Antiproliferative Index IC50 CHO-K1/IC50 HEP G2 (Hep G2 cells [1]; ratio of MTT IC50 values, 72 h)	IC50 (CHO-K1 cells [3])	Antiproliferative Index IC50 CHO-K1/IC50 HEP G2 (Hep G2 cells [1])	Viable cells vs. control (trypan blue exclusion) (CHO-K1 cells [8])	IC50 (Hep G2 cells [1])	Necrosis (Hep G2 cells [10])	VEGFa mRNA expression vs. control [11]	Cell death (apoptosis/necrosis) (CHO-K1 cells [12])	Viable cells vs. control (trypan blue exclusion) (HepG2 cells [13])	Cytotoxicity / cell viability vs. control (trypan blue exclusion) (HepG2 cells [13])	Vim mRNA expression vs. control (vimentin (Vim) mRNA)	GPx activity vs. control [7, 17]	MMP-2 mRNA expression vs. control [4, 18]	GPx activity vs. control [15]	Apoptosis (Hep G2 cells [10])	MMP-9 mRNA expression vs. control [5, 18]	other results
N.N.[Cl][Pt][Cl] [Cisplatin, cisplatin, reference compound]	0.9	19.1 ± 2 µM															IC50 (Hep G2 cells [2]; [16]): 21.3 ± 2 µM
[Cl-].[Cl-].[Co+2] [CoCl2]			1.1														MMP-2 mRNA expression vs. control [4]: decreased mRNA for MMP-2; IC50 (Hep G2 cells [2]): 160 µM; MMP-9 mRNA expression vs. control [5]: did not changed transcript level for MMP-9; IC50 (CHO-K1 cells [6]): 176 µM; GPx activity vs. control [7]: did not exert any effect
CO.Cc1cc(C)n(CNCn2nc(C)cc2C)n1.Cc1cc(C)n(CNCn2nc(C)cc2C)n1.[Co+2].[I-].[I-] [Complex 1, [Co(L^D)2]I2∙CH3OH]	5.5	122 ± 10 µM		statistically significant decrease in viable cells	22 ± 4 µM	caused mainly necrotic cell death	significantly hampered VEGFa expression	minor	statistically significant decrease in viable cells	statistically significant toxic effect; also recorded: greatest decrease in Hep G2 cell viability	decreased Vim expression	elevated the enzyme activity					Cell growth vs. control (HepG2 cells [9]): greatest inhibitory effect
Cc1cc(C)n(CNCn2nc(C)cc2C)n1.[Co+2].[N-]=C=S.[N-]=C=S [Complex 2, [CoL^D(NCS)2]]		268 ± 15 µM	7.0	statistically significant decrease in viable cells	38.2 ± 5 µM	caused mainly necrotic cell death	significantly hampered VEGFa expression	minor	statistically significant decrease in viable cells	statistically significant toxic effect		elevated the enzyme activity					Cell growth vs. control (CHO-K1 cells [14]): lowest inhibitory potency
Cc1cc(C)n(CNCn2nc(C)cc2C)n1.Cc1ccccc1.[N-]=C=S.[N-]=C=S.[O]=[V+2] [Complex 3, [VOL^D(NCS)2]∙C6H5CH3]	2.7	123 ± 3 µM		statistically significant decrease in viable cells	45.6 ± 5 µM		significantly hampered VEGFa expression	minor	statistically significant decrease in viable cells	statistically significant toxic effect	decreased Vim expression	did not disturb antioxidant enzyme activity	greatest inhibitory effect	decreased GPx activity	most active promotor of apoptosis	greatest inhibitory effect	
O=S(=O)([O-])[O-].[O]=[V+2] [VOSO4, reference compound]	1.3				75.6 ± 8 µM								did not exert any effect	elevated the enzyme activity	much weaker than complex 3	did not exert any effect	IC50 (CHO-K1 cells [6]; [16]): 98.3 ± 9 µM
